In patent US20240158446A1, “CYCLIC COMPOUND HAVING SELECTIVE INHIBITORY ACTION ON KRAS OVER HRAS AND NRAS” (CHUGAI SEIYAKU KABUSHIKI KAISHA, priority 2021, published 2024):
Where two headings read alike, the source gives them in different places. Blank lines part the entries; values can stand above or below the compound they belong to.

Experiments:
[1] = biological target: GDP-bound KRAS wild-type protein (Homo sapiens, UniProt P01116); assay: Binding to KRAS by surface plasmon resonance (SPR), Single Cycle Kinetics; conditions: GDP-bound KRAS wild-type protein, read-out: KRAS KD
GDP-bound KRAS wild-type protein, sequence (P01116 whole entry): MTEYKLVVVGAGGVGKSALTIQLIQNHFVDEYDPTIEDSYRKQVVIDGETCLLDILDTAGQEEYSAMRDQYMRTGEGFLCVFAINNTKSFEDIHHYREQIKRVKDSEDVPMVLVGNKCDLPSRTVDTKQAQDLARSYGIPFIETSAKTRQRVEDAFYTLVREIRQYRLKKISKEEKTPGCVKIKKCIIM

[2] = biological target: GDP-bound NRAS wild-type protein (Homo sapiens, UniProt P01111); assay: Binding to NRAS by surface plasmon resonance (SPR), Single Cycle Kinetics; conditions: for NRAS/KRAS (ratio of KD value with respect to GDP-bound NRAS wild-type protein to KD value with respect to KRAS): SPR KD ratio NRAS/KRAS, class symbols
GDP-bound NRAS wild-type protein, sequence (P01111 whole entry): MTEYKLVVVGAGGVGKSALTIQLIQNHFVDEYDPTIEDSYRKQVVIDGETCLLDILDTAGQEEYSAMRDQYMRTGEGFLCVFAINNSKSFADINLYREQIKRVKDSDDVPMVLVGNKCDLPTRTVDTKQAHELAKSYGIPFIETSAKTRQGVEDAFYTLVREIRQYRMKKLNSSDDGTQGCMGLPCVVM

[3] = biological target: GDP-bound HRAS wild-type protein (Homo sapiens, UniProt P01112); assay: Binding to HRAS by surface plasmon resonance (SPR), Single Cycle Kinetics; conditions: for HRAS/KRAS (ratio of KD value with respect to GDP-bound HRAS wild-type protein to KD value with respect to KRAS): SPR KD ratio HRAS/KRAS, class symbols
GDP-bound HRAS wild-type protein, sequence (P01112 whole entry): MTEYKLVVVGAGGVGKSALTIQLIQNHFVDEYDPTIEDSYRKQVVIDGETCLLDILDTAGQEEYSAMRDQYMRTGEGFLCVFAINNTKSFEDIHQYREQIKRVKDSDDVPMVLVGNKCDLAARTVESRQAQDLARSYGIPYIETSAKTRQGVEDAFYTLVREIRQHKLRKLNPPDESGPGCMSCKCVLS

[4] = system: human lung cancer strain NCI-H441;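 also: cell proliferation inhibition after four days measured by CellTiter-Glo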
[5] = SPR, Single Cycle Kinetics, 1:1 binding model
[6] = SPR, GDP-bound NRAS wild-type protein vs GDP-bound KRAS wild-type protein, KD ratio class
[7] = SPR, GDP-bound HRAS wild-type protein vs GDP-bound KRAS wild-type protein, KD ratio class
[8] = SPR, GDP-bound NRAS wild-type protein vs GDP-bound KRAS wild-type protein
[9] = SPR, GDP-bound HRAS wild-type protein vs GDP-bound KRAS wild-type protein
[10] = SPR Single Cycle Kinetics, 1:1 binding model

Compound: CCCO[C@H](C)[C@@H]1NC(=O)[C@H](CC(C)C)N(C)C(=O)C[C@@H](C(=O)N(C)C)N(C)C(=O)[C@H](C2CCCC2)N(C)C(=O)C2(CC(C)(C)C2)NC(=O)[C@@H]2C[C@H](C)CN2C(=O)[C@H](CCc2ccc(C(F)(F)F)c(OC)c2)NC(=O)CN(C)C(=O)[C@H](Cc2ccc(C)cc2)N2CC/C=C\C[C@@H](C2=O)N(C)C(=O)CN(C)C1=O [PP2415]
Kd ([1]; SPR, Single Cycle Kinetics): 0.093 nM
NRAS/KRAS (ratio of KD value for NRAS to KD value for KRAS) [2, 8]: AA (a compound having 20 or more is denoted as AA)
HRAS/KRAS (ratio of KD value for HRAS to KD value for KRAS) [3, 9]: A (a compound having 10 or more and less than 20 is denoted as A)
IC50 [4]: 10.3 nM

Compound: CC[C@H](C)[C@@H]1NC(=O)[C@H](COC)N(C)C(=O)C[C@@H](C(=O)N(C)C)N(C)C(=O)[C@H](C2CCCCC2)N(C)C(=O)C2(CC(C)(C)C2)NC(=O)[C@@H]2C[C@@H](OC(C)C)CN2C(=O)[C@H](CCc2cc(F)c(C(F)(F)F)c(F)c2)NC(=O)CN(C)C(=O)[C@H](Cc2ccc(C(F)(F)F)cc2)N2CC/C=C\C[C@@H](C2=O)N(C)C(=O)CN(C)C1=O [PP2654]
Kd [1, 10]: 0.12 nM
NRAS/KRAS (ratio of KD value with respect to GDP-bound NRAS wild-type protein to KD value with respect to KRAS) [2]: A (a compound having 10 or more and less than 20 is denoted as A)
HRAS/KRAS (ratio of KD value with respect to GDP-bound HRAS wild-type protein to KD value with respect to KRAS) [3]: A (a compound having 10 or more and less than 20 is denoted as A)
IC50 [4]: 12.4 nM

Compound: CCO[C@@H]1C[C@H]2C(=O)NC3(CCC3)C(=O)N(C)[C@@H](C3CCCC3)C(=O)N(C)[C@H](C(=O)N3CCOCC3)CC(=O)N(C)[C@@H](CC(C)C)C(=O)N[C@@H]([C@@H](C)CC)C(=O)N(C)CC(=O)N(C)[C@H]3C/C=C\CCN(C3=O)[C@@H](Cc3ccc(C)cc3)C(=O)N(C)CC(=O)N[C@@H](CCc3cc(F)c(C(F)(F)F)c(F)c3)C(=O)N2C1 [PP1415]
Kd [1, 5]: 0.25 nM
NRAS/KRAS (ratio of KD value for NRAS to KD value for KRAS) [2, 6]: A (a compound having 10 or more and less than 20 is denoted as A)
HRAS/KRAS (ratio of KD value for HRAS to KD value for KRAS) [3, 7]: A (a compound having 10 or more and less than 20 is denoted as A)
IC50 [4]: 9.5 nM

Compound: CC[C@H](C)[C@@H]1NC(=O)[C@H](COC)N(C)C(=O)C[C@@H](C(=O)N2CCCCC2)N(C)C(=O)[C@H](C2CCCC2)N(C)C(=O)C2(CC(C)(C)C2)NC(=O)[C@@H]2C[C@@H](OC(C)C)CN2C(=O)[C@H](CCc2ccc(Cl)c(Cl)c2)NC(=O)CN(C)C(=O)[C@H](Cc2ccc(C(F)(F)F)cc2)N2CC/C=C\C[C@@H](C2=O)N(C)C(=O)CN(C)C1=O [PP2671]
Kd [1, 10]: 0.67 nM
NRAS/KRAS (ratio of KD value with respect to GDP-bound NRAS wild-type protein to KD value with respect to KRAS) [2]: A (a compound having 10 or more and less than 20 is denoted as A)
HRAS/KRAS (ratio of KD value with respect to GDP-bound HRAS wild-type protein to KD value with respect to KRAS) [3]: A (a compound having 10 or more and less than 20 is denoted as A)
IC50 [4]: 26.3 nM

Compound: CCO[C@@H]1C[C@H]2C(=O)NC3(CCC3)C(=O)N(C)[C@@H](C3CCCC3)C(=O)N(C)[C@H](C(=O)N3CCOCC3)CC(=O)N(C)[C@@H](CC3CCCC3)C(=O)N[C@@H]([C@@H](C)CC)C(=O)N(C)CC(=O)N(C)[C@H]3C/C=C\CCN(C3=O)[C@@H](Cc3ccc(C)cc3)C(=O)N(C)CC(=O)N[C@@H](CCc3cc(F)c(C(F)(F)F)c(F)c3)C(=O)N2C1 [PP1394]
Kd [1, 5]: 0.24 nM
NRAS/KRAS (ratio of KD value for NRAS to KD value for KRAS) [2, 6]: AA (a compound having 20 or more is denoted as AA)
HRAS/KRAS (ratio of KD value for HRAS to KD value for KRAS) [3, 7]: A (a compound having 10 or more and less than 20 is denoted as A)
IC50 [4]: 25.1 nM

Continued, in another order:

Kd [1, 5]: 0.69 nM
IC50 [4]: 112 nM
Compound: CCO[C@@H]1C[C@H]2C(=O)NC3(CCC3)C(=O)N(C)[C@@H](C(CC)CC)C(=O)N(C)[C@H](C(=O)N3CCCC3)CC(=O)N(C)[C@@H](C)C(=O)N[C@@H]([C@@H](C)CC)C(=O)N(C)CC(=O)N(C)[C@H]3C/C=C\CCN(C3=O)[C@@H](CC3CCCCC3)C(=O)N(C)CC(=O)N[C@@H](CCc3cc(F)c(C(F)(F)F)c(F)c3)C(=O)N2C1 [PP1434]
NRAS/KRAS (ratio of KD value for NRAS to KD value for KRAS) [2, 6]: A (a compound having 10 or more and less than 20 is denoted as A)
HRAS/KRAS (ratio of KD value for HRAS to KD value for KRAS) [3, 7]: A (a compound having 10 or more and less than 20 is denoted as A)

Kd [1, 5]: 0.29 nM
IC50 [4]: 10.3 nM
Compound: CCO[C@@H]1C[C@H]2C(=O)NC3(CCC3)C(=O)N(C)[C@@H](C3CCCC3)C(=O)N(C)[C@H](C(=O)N3CCOCC3)CC(=O)N(C)[C@@H](CC(C)C)C(=O)N[C@@H]([C@@H](C)CC)C(=O)N3CC[C@H]3C(=O)N(C)[C@H]3CC[C@@H](C)CN(C3=O)[C@@H](Cc3ccc(C(F)(F)F)cc3)C(=O)N(C)CC(=O)N[C@@H](CCc3ccc(C(F)(F)F)c(Cl)c3)C(=O)N2C1 [PP1379]
NRAS/KRAS (ratio of KD value for NRAS to KD value for KRAS) [2, 6]: A (a compound having 10 or more and less than 20 is denoted as A)
HRAS/KRAS (ratio of KD value for HRAS to KD value for KRAS) [3, 7]: B (a compound having 3 or more and less than 10 is denoted as B)

Kd [1, 10]: 4.6 nM
IC50 [4]: 394 nM
Compound: CCC[C@H]1C(=O)N[C@@H](CC(C)C)C(=O)N(CCOC)CC(=O)N(C)[C@H]2C/C=C\CCN(C2=O)[C@@H](Cc2ccc(C)cc2)C(=O)N(C)CC(=O)N[C@@H](CCc2ccc(C(F)(F)F)c(OC)c2)C(=O)N2C[C@H](OCC)C[C@H]2C(=O)NC2(CCC2)C(=O)N(C)[C@@H](C2CCCC2)C(=O)N(C)[C@H](C(=O)N(C)C)CC(=O)N1C [PP2542]
NRAS/KRAS (ratio of KD value with respect to GDP-bound NRAS wild-type protein to KD value with respect to KRAS) [2]: B (a compound having 3 or more and less than 10 is denoted as B)
HRAS/KRAS (ratio of KD value with respect to GDP-bound HRAS wild-type protein to KD value with respect to KRAS) [3]: B (a compound having 3 or more and less than 10 is denoted as B)

Kd [1, 5]: 0.047 nM
IC50 [4]: 4.9 nM
Compound: CCO[C@@H]1C[C@H]2C(=O)NC3(CC(C)(C)C3)C(=O)N(C)[C@@H](C3CCCC3)C(=O)N(C)[C@H](C(=O)N(C)C)CC(=O)N(C)[C@@H](CC)C(=O)N[C@@H]([C@@H](C)CC)C(=O)N(C)CC(=O)N(C)[C@H]3C/C=C\CCN(C3=O)[C@@H](Cc3ccc(C(F)(F)F)cc3)C(=O)N(C)CC(=O)N[C@@H](CCc3cc(F)c(C(F)(F)F)c(F)c3)C(=O)N2C1 [PP1275, (2S,8S,12R,14S,20S,23S,27S,30S,36S,38Z)-20-cyclopentyl-8-[2-[3,5-difluoro-4-(trifluoromethyl)phenyl]ethyl]-12-ethoxy-27-ethyl-N,N,3′,3′,4,19,22,26,32,35-decamethyl-30-[(1S)-1-methylpropyl]-3,6,9,15,18,21,25,28,31,34,42-undecaoxo-2-[[4-(trifluoromethyl)phenyl]methyl]spiro[1,4,7,10,16,19,22,26,29,32,35-undecazatricyclo[34.5.1.0^10,14]dotetracont-38-ene-17,1′-cyclobutane]-23-carboxamide]
NRAS/KRAS (ratio of KD value for NRAS to KD value for KRAS) [2, 6]: A (a compound having 10 or more and less than 20 is denoted as A)
HRAS/KRAS (ratio of KD value for HRAS to KD value for KRAS) [3, 7]: A (a compound having 10 or more and less than 20 is denoted as A)

Kd ([1]; SPR, Single Cycle Kinetics): 0.051 nM
IC50 [4]: 4.7 nM
Compound: CCOC[C@H]1C(=O)N[C@@H]([C@@H](C)CC)C(=O)N(C)CC(=O)N(C)[C@H]2C/C=C\CCN(C2=O)[C@@H](Cc2ccc(C)cc2)C(=O)N(C)CC(=O)N[C@@H](CCc2cc(F)c(C(F)(F)F)c(F)c2)C(=O)N2C[C@H](OCC)C[C@H]2C(=O)NC2(CC(C)(C)C2)C(=O)N(C)[C@@H](C2CCCC2)C(=O)N(C)[C@H](C(=O)N(C)C)CC(=O)N1C [PP2397]
NRAS/KRAS (ratio of KD value for NRAS to KD value for KRAS) [2, 8]: A (a compound having 10 or more and less than 20 is denoted as A)
HRAS/KRAS (ratio of KD value for HRAS to KD value for KRAS) [3, 9]: A (a compound having 10 or more and less than 20 is denoted as A)

Kd [1, 10]: 0.14 nM
IC50 [4]: 17 nM
Compound: CCO[C@@H]1C[C@H]2C(=O)NC3(CCC3)C(=O)N(C)[C@@H](C3CCCC3)C(=O)N(CCC3CCCC3)[C@H](C(=O)N(C)C)CC(=O)N(C)[C@@H](CC)C(=O)N[C@@H]([C@@H](C)CC)C(=O)N(C)CC(=O)N(C)[C@H]3CCCCN(C3=O)[C@@H](Cc3ccc(C(F)(F)F)cc3)C(=O)N(C)CC(=O)N[C@@H](CCc3cc(F)c(C(F)(F)F)c(F)c3)C(=O)N2C1 [PP0646]
NRAS/KRAS (ratio of KD value with respect to NRAS to KD value with respect to KRAS) [2, 8]: C (A compound having a KD ratio of 0.1 or more and less than 3 is denoted as C)
HRAS/KRAS (ratio of KD value with respect to HRAS to KD value with respect to KRAS) [3, 9]: B (a compound having 3 or more and less than 10 is denoted as B)

Kd ([1]; SPR, Single Cycle Kinetics): 1.5 nM
IC50 [4]: 295 nM
Compound: CCO[C@@H]1C[C@H]2C(=O)NC3(CCC3)C(=O)N(C)[C@@H](C3CCCC3)C(=O)N(C)[C@H](C(=O)N3CCOCC3)CC(=O)N(C)[C@@H](Cc3ccccc3C#N)C(=O)N[C@@H]([C@@H](C)CC)C(=O)N(C)CC(=O)N(C)[C@H]3CCCCCN(C3=O)[C@@H](Cc3ccc(C(F)(F)F)cc3)C(=O)N(C)CC(=O)N[C@@H](CCc3cc(F)c(C(F)(F)F)c(F)c3)C(=O)N2C1 [PP1165]
NRAS/KRAS (ratio of KD value for NRAS to KD value for KRAS) [2, 8]: A (a compound having 10 or more and less than 20 is denoted as A)
HRAS/KRAS (ratio of KD value for HRAS to KD value for KRAS) [3, 9]: B (a compound having 3 or more and less than 10 is denoted as B)
